Experimental data as given in patent US20210379035A1, “Methods Of Treating Fabry Patients Having Renal Impairment” (Amicus Therapeutics, Inc., priority 2017, published 2021).
Where two headings read alike, the source gives them in different places.

Test: Single-dose renal impairment PK and safety study in non-Fabry subjects (Example 1)
Assay type: in vivo, human
Experimental: The eGFR was estimated by the Cockcroft-Gault equation per the FDA Guidance for renal impairment studies.
Volunteers were enrolled into two cohorts stratified for renal function calculated using the Cockcroft-Gault equation for creatinine clearance (CLCR). Subjects were assigned to groups based on an estimated CLCR at screening as calculated using the Cockcroft-Gault equation.
Subjects were grouped according to degree of renal dysfunction: mild (CLCR≥60 and <90 mL/min), moderate (CLCR≥30 and <60 mL/min), or severe (CLCR≥15 and <30 mL/min)

[1] = human, plasma, oral, 150 mg, single 150 mg migalastat HCl, non-Fabry, Mild (N = 8)
[2] = human, plasma, oral, 150 mg, single 150 mg migalastat HCl, non-Fabry, Moderate (N = 8)
[3] = human, plasma, oral, 150 mg, single 150 mg migalastat HCl, non-Fabry, Normal (N = 8)
[4] = human, plasma, oral, 150 mg, single 150 mg migalastat HCl, non-Fabry, Severe (N = 8)

OC[C@H]1NC[C@H](O)[C@@H](O)[C@H]1O [migalastat, (2R,3S,4R,5S)-2-(hydroxymethyl) piperdine-3,4,5-triol]
concentration at 3 h (human, plasma, oral, 150 mg, Comparison to Example 1 Moderate Impairment (migalastat concentration), non-Fabry, moderate impairment, 3 Hrs Post): 1870 ng/mL | concentration at 24 h (human, plasma, oral, 150 mg, Comparison to Example 1 Moderate Impairment (migalastat concentration), non-Fabry, moderate impairment, 24 Hrs Post): 239 ng/mL | concentration at 48 h (human, plasma, oral, 150 mg, Comparison to Example 1 Moderate Impairment (migalastat concentration), non-Fabry, moderate impairment, 48 Hrs Post): 64.5 ng/mL | concentration at 2 h (human, plasma, oral, 150 mg, Comparison to Example 1 Severe Impairment (migalastat concentration), non-Fabry, severe impairment, 2 h): 1550 ng/mL | concentration at 24 h (human, plasma, oral, 150 mg, Comparison to Example 1 Severe Impairment (migalastat concentration), non-Fabry, severe impairment, 24 h): 770 ng/mL | concentration at 48 h (human, plasma, oral, 150 mg, Comparison to Example 1 Severe Impairment (migalastat concentration), non-Fabry, severe impairment, 48 h): 334 ng/mL | AUC(0-inf) [1]: 14500 ng·h/mL | AUC(0-t) [1]: 14400 ng·h/mL | Cmax [1]: 2190 ng/mL | concentration at 48 h (human, plasma, oral, 150 mg, single 150 mg migalastat HCl, non-Fabry, Mild (N = 8), read-out: C48): 9.34 ng/mL | half-life (human, plasma, oral, 150 mg, single 150 mg migalastat HCl, non-Fabry, Mild (N = 8), read-out: t1/2 (converted)): 7.66 h | AUC(0-inf) [2]: 22500 ng·h/mL | AUC(0-t) [2]: 22100 ng·h/mL | Cmax [2]: 1870 ng/mL | Tmax [2]: 3 h | concentration at 48 h (human, plasma, oral, 150 mg, single 150 mg migalastat HCl, non-Fabry, Moderate (N = 8), read-out: C48): 64.5 ng/mL | half-life (human, plasma, oral, 150 mg, single 150 mg migalastat HCl, non-Fabry, Moderate (N = 8), read-out: t1/2 (converted)): 22.2 h | AUC(0-inf) [3]: 12400 ng·h/mL | AUC(0-t) [3]: 12300 ng·h/mL | Cmax [3]: 2100 ng/mL | concentration at 48 h (human, plasma, oral, 150 mg, single 150 mg migalastat HCl, non-Fabry, Normal (N = 8), read-out: C48): 5.7 ng/mL | half-life (human, plasma, oral, 150 mg, single 150 mg migalastat HCl, non-Fabry, Normal (N = 8), read-out: t1/2 (converted)): 6.42 h | AUC(0-inf) [4]: 56200 ng·h/mL | AUC(0-t) [4]: 53100 ng·h/mL | Cmax [4]: 2080 ng/mL | Tmax [4]: 4.27 h | concentration at 48 h (human, plasma, oral, 150 mg, single 150 mg migalastat HCl, non-Fabry, Severe (N = 8), read-out: C48): 334 ng/mL | half-life (human, plasma, oral, 150 mg, single 150 mg migalastat HCl, non-Fabry, Severe (N = 8), read-out: t1/2 (converted)): 32.3 h | half-life (human, plasma, po, 150 mg, single oral 150 mg migalastat HCl, mild renal impairment, read-out: t1/2 in plasma, arithmetic mean [min, max] (converted)): 7.7 h | half-life (human, plasma, po, 150 mg, single oral 150 mg migalastat HCl, moderate renal impairment, read-out: t1/2 in plasma, arithmetic mean [min, max] (converted)): 22.2 h | half-life (human, plasma, po, 150 mg, single oral 150 mg migalastat HCl, normal renal function, read-out: t1/2 in plasma, arithmetic mean [min, max] (converted)): 6.4 h | half-life (human, plasma, po, 150 mg, single oral 150 mg migalastat HCl, severe renal impairment, read-out: t1/2 in plasma, arithmetic mean [min, max] (converted)): 32.3 h | Plasma migalastat concentration (non-Fabry, moderate impairment, Pre-dose (0 h), same value as 48 h): 64.5 ng/mL | CL/F (single 150 mg migalastat HCl, non-Fabry, Mild (N = 8)): 10.3 L/h | CL/F (single 150 mg migalastat HCl, non-Fabry, Moderate (N = 8)): 6.68 L/h | CL/F (single 150 mg migalastat HCl, non-Fabry, Normal (N = 8)): 12.1 L/h | CL/F (single 150 mg migalastat HCl, non-Fabry, Severe (N = 8)): 2.67 L/h | Incidence of adverse events (single 150 mg migalastat HCl, all renal function groups): comparable across all renal function groups | increase of mean plasma migalastat AUC0-∞ compared to healthy control subjects (single oral 150 mg migalastat HCl, mild renal impairment): 1.2 fold
